ChEMBL document CHEMBL1136844, “Discovery of novel small molecule cell type-specific enhancers of NF-kappaB nuclear translocation” (Bioorg Med Chem Lett, 2009)
The source made the active and inactive calls. The rule behind the calls is not given here.

Tests used:
[1] = target: Transcription factor p65 (Homo sapiens) (UniProt Q04206); experiment: Potentiation of TNF-alpha-induced NF-kappaB p65 nuclear translocation in HUVEC cells by immunostaining; type: cell-based
[2] = target: Transcription factor p65 (Homo sapiens) (UniProt Q04206); experiment: Induction of NF-kappaB p65 nuclear translocation in HUVEC cells by immunostaining; type: cell-based

Sequence of Transcription factor p65 (Homo sapiens) (Q04206 whole entry): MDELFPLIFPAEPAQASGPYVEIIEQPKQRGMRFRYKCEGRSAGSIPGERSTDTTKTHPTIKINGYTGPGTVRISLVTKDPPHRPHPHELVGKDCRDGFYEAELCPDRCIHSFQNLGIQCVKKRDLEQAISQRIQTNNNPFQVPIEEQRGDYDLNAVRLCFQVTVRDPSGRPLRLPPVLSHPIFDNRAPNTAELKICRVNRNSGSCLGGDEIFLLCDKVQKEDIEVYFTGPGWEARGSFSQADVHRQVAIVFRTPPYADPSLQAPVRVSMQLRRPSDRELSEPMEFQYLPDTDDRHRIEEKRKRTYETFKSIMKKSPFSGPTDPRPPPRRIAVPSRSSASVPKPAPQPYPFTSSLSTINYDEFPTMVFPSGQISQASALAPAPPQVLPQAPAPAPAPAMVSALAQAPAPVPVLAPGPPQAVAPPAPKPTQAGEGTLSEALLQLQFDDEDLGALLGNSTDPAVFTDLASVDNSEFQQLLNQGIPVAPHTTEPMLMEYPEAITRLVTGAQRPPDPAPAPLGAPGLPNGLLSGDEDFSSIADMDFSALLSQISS

Activity [1]	Activity [2]	Compound
inactive	inactive	COc1ccc2nc(-c3cccs3)nc(NCCN3CCOCC3)c2c1
inactive	inactive	COc1ccc(CCNc2nc(-c3cccs3)nc3ccc(OC)cc23)cc1
inactive	inactive	COc1ccc2nc(-c3cccs3)nc(NNS(=O)(=O)c3ccc(C)cc3)c2c1
inactive	inactive	COc1cccc2nc(-c3cccs3)nc(NN3C(=O)CC(C)C3=O)c12 (configuration not stated)
inactive	inactive	COc1ccc2nc(-c3cccs3)nc(N3CCOCC3)c2c1
inactive	inactive	COc1ccc2nc(-c3cccs3)nc(NCc3ccccc3Cl)c2c1
